Measurements reported in the NIST ThermoML archive (doi:10.1016/j.fluid.2007.07.039).

Assay: xn = mol fraction of the nth substance listed
Conditions: Liquid, Taylor dispersion method, x1 = 0

binary diffusion coefficient (313.16 K, 15000 kPa)	binary diffusion coefficient (313.16 K, 20000 kPa)	binary diffusion coefficient (313.16 K, 25000 kPa)	binary diffusion coefficient (313.16 K, 30000 kPa)	binary diffusion coefficient (313.16 K, 35000 kPa)	binary diffusion coefficient (323.16 K, 15000 kPa)	binary diffusion coefficient (323.16 K, 20000 kPa)	binary diffusion coefficient (323.16 K, 25000 kPa)	binary diffusion coefficient (323.16 K, 30000 kPa)	binary diffusion coefficient (323.16 K, 35000 kPa)	binary diffusion coefficient (333.16 K, 15000 kPa)	binary diffusion coefficient (333.16 K, 20000 kPa)	binary diffusion coefficient (333.16 K, 25000 kPa)	binary diffusion coefficient (333.16 K, 30000 kPa)	binary diffusion coefficient (333.16 K, 35000 kPa)	Compound
1.03e-08 m2/s	9.44e-09 m2/s	8.69e-09 m2/s	8.07e-09 m2/s	7.69e-09 m2/s	1.28e-08 m2/s	1.06e-08 m2/s	9.71e-09 m2/s	8.94e-09 m2/s	8.54e-09 m2/s	1.51e-08 m2/s	1.21e-08 m2/s	1.11e-08 m2/s	9.95e-09 m2/s	9.47e-09 m2/s	C=Cc1cccc(C=C)c1 [1,3-diethenylbenzene] + O=C=O
9.46e-09 m2/s	8.66e-09 m2/s	7.92e-09 m2/s	7.48e-09 m2/s	7.15e-09 m2/s	1.15e-08 m2/s	1.01e-08 m2/s	9.08e-09 m2/s	8.52e-09 m2/s	7.98e-09 m2/s	1.28e-08 m2/s	1.19e-08 m2/s	1.06e-08 m2/s	9.45e-09 m2/s	8.98e-09 m2/s	COc1ccccc1Br [1-bromo-2-methoxybenzene] + O=C=O
1.02e-08 m2/s	9.27e-09 m2/s	8.69e-09 m2/s	8.01e-09 m2/s	7.68e-09 m2/s	1.25e-08 m2/s	1.05e-08 m2/s	9.89e-09 m2/s	9.14e-09 m2/s	8.65e-09 m2/s	1.43e-08 m2/s	1.23e-08 m2/s	1.1e-08 m2/s	1.03e-08 m2/s	9.67e-09 m2/s	COc1ccccc1F [2-fluoroanisole] + O=C=O

Compound	binary diffusion coefficient (313.16 K, 15000 kPa)	binary diffusion coefficient (313.16 K, 20000 kPa)	binary diffusion coefficient (313.16 K, 25000 kPa)	binary diffusion coefficient (313.16 K, 30000 kPa)	binary diffusion coefficient (313.16 K, 35000 kPa)	binary diffusion coefficient (323.16 K, 15000 kPa)	binary diffusion coefficient (323.16 K, 20000 kPa)	binary diffusion coefficient (323.16 K, 25000 kPa)	binary diffusion coefficient (323.16 K, 30000 kPa)	binary diffusion coefficient (323.16 K, 35000 kPa)	binary diffusion coefficient (333.16 K, 15000 kPa)	binary diffusion coefficient (333.16 K, 20000 kPa)	binary diffusion coefficient (333.16 K, 25000 kPa)	binary diffusion coefficient (333.16 K, 30000 kPa)	binary diffusion coefficient (333.16 K, 35000 kPa)
C=CCc1ccccc1 [2-propenylbenzene] + O=C=O	1.03e-08 m2/s	9.11e-09 m2/s	8.93e-09 m2/s	8.29e-09 m2/s	7.67e-09 m2/s	1.23e-08 m2/s	1.12e-08 m2/s	1e-08 m2/s	9.35e-09 m2/s	9.01e-09 m2/s	1.41e-08 m2/s	1.22e-08 m2/s	1.15e-08 m2/s	1.05e-08 m2/s	9.87e-09 m2/s
